Source: US20220280661A1, “GLUCOCORTICOID RECEPTOR RADIOLIGANDS AND METHODS FOR THEIR PREPARATION AND USE” (The Regents of the University of California, priority 2019, published 2022)

Columns and labels:
GR [1] = assay: Immunoblot of GR in breast cancer cell lines treated with JG231; type: cell-based, human; conditions: 24 hours
Description: Cells were treated with the indicated dose for 24 hours.

GR [2] = assay: 18F-YJH08 PET/biodistribution after JG231 treatment; type: in vivo, mouse; conditions: once daily for 3 days via intraperitoneal injection
Description: At right is shown a maximum intensity projection of supraspinal BAT and muscle from a representative mouse in either treatment arm. Mice (n=5/treatment arm) were treated with JG231 or vehicle once daily for 3 days via intraperitoneal injection.
The biodistribution data are representative of two independent experiments.
The limitations of broad-spectrum GR modulators like corticosteroids are well known, and the severe side effects associated with their long term use (e.g. diabetes mellitus, osteoporosis) motivated drug development campaigns starting in the 1990s to identify safer GR modulators that selectively modulate GR activity (Sundahl, et al. Pharmacol. Ther. 2015, 152, 28-41). […] To test this concept, the biodistribution of ^18F-YJH08 was evaluated in mice after treatment with JG231 (FIGS. 10A and 10B). […] Using the same treatment strategy, mice were subjected to 4 mg/kg/day for three days intraperitoneally, and subsequently treated with ^18F-YJH08. […] In these regions, it appeared that JG231 suppressed radiotracer binding, perhaps indicative of GR degradation. […] Immunoblot studies corroborated the biodistribution data, showing approximately ˜50% reduction in GR expression levels due to JG231 treatment in brown fat, and no change in GR levels from other tissues, for example, kidneys, liver, and muscle (FIG. 10E). […]

GR [3] = assay: Immunoblot of GR in mouse tissues after JG231 treatment; type: in vivo; conditions: 4 mg/kg/day for three days intraperitoneally
Text: GR levels were not impacted in liver, kidneys, or muscle, as predicted based on the radiotracer biodistribution data.
The limitations of broad-spectrum GR modulators like corticosteroids are well known, and the severe side effects associated with their long term use (e.g. diabetes mellitus, osteoporosis) motivated drug development campaigns starting in the 1990s to identify safer GR modulators that selectively modulate GR activity (Sundahl, et al. Pharmacol. Ther. 2015, 152, 28-41). […] To test this concept, the biodistribution of ^18F-YJH08 was evaluated in mice after treatment with JG231 (FIGS. 10A and 10B). […] Using the same treatment strategy, mice were subjected to 4 mg/kg/day for three days intraperitoneally, and subsequently treated with ^18F-YJH08. […] In these regions, it appeared that JG231 suppressed radiotracer binding, perhaps indicative of GR degradation. […] Immunoblot studies corroborated the biodistribution data, showing approximately ˜50% reduction in GR expression levels due to JG231 treatment in brown fat, and no change in GR levels from other tissues, for example, kidneys, liver, and muscle (FIG. 10E). This is believed to be the first example of tissue specific GR degradation.

## CCn1c(=O)/c(=C2\Sc3cc(Cl)ccc3N2C)s/c1=C\c1scc[n+]1Cc1ccc(Br)s1.[Cl-] [JG231, 3-((5-bromothiophen-2-yl)methyl)-2-((Z)-((E)-5-(6-chloro-3-methylbenzo[d]thiazol-2(3H)-ylidene)-3-ethyl-4-oxothiazolidin-2-ylidene)methyl)thiazol-3-ium chloride]
GR [1]; MCF7 cells
  GR degradation (immunoblot), MCF7: degrades GR
GR [1]; MDA MB 231 cells
  GR degradation (immunoblot), MDA MB 231: degrades GR
GR [2]
  effect on ^18F-YJH08 tissue uptake: suppressed radiotracer uptake exclusively in the supraspinal brown fat pad
GR [3]
  GR levels in kidneys, liver, and muscle: no change
  reduction in GR expression levels in brown fat: ~50%
